Reference: patent US20120041006A1, “Compositions for Raising Uric Acid Levels and Methods of Using the Same” (priority 1998, published 2012)

Assays:
[1] = Oral uric acid precursor in a person with Alzheimer's; assay type: in vivo, human; details: one Alzheimer's patient; 500-1,000 mg orally per day; upon raising uric acid levels
[2] = Chickens given allopurinol to lower uric acid; glycosylation damage; assay type: in vivo
Experimental: The following example was conducted to establish the role of uric acid in protecting against the sequelia associated with diabetic damage. It is established that this sequelia occurs in diabetic patients due to increases in sugar levels that result from either the insufficient production of insulin or the insufficient breakdown of sugar by the insulin, depending of the type of diabetes. Sugar, in excess conditions, can become an oxidizer, which leads to oxidative damage in a patient. Glycosylated hemoglobin (HBA1C) is used to measure the amount of oxidative damage that results from excess sugar in a patient; increased (HBA1C) is the definition used for diabetes. […] Chickens are known to have excessively high sugar levels, and should be essentially in a diabetic state. […] To confirm the causal relationship between high levels of uric acid and prevention of glycosylation damage, chickens were given allopurinol. This compound specifically […].

SMILES | Alzheimer symptoms (not recognizing bathroom, incontinence, general cognitive decline) [1] | signs of diabetic complications ([2]; after uric acid reduced to below normal levels) | uric acid levels ([2]; enough administered to effect significant conversion of uric acid) | levels of the chicken equivalent of A1C (glycosylated hemoglobin) ([2]; once uric acid reduced to below normal levels)
O=c1[nH]cnc2nc[nH]c12 [hypoxanthine] | reduced | – | – | –
OC[C@H]1O[C@@H](n2cnc3c(O)ncnc32)[C@H](O)[C@@H]1O [inosine] | reduced | – | – | –
Oc1ncnc2[nH]ncc12 [allopurinol] | – | exhibited signs of diabetic complications | lowering of uric acid levels | increased dramatically
